Source: the supplement of paper PMC10307832

Key:
Experiment in all cases: relative viability (nuclei count vs DMSO), 5 days (fraction); higher = more cells survive
Bexarotene + Alpelisib = compound: C=C(c1ccc(C(=O)O)cc1)c1cc2c(cc1C)C(C)(C)CCC2(C)C [Bexarotene] + Cc1nc(NC(=O)N2CCC[C@H]2C(N)=O)sc1-c1ccnc(C(C)(C)C(F)(F)F)c1 [Alpelisib] (partner 2 µM)
How it was run: (§1)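 The day after seeding in 1536-well plates, lung cancer cell lines were treated by pin tool with a single drug, or with a fixed anchor-drug dose together with five library-drug doses (not always all listed) in √10 steps. After 5 days, a combined fix-and-stain solution (final 0.05% Triton X-100, 1% formaldehyde, 1 ug/ml Hoechst) was added. Nuclei counted on 4× images gave relative viability as treated counts over vehicle counts, reported as the median of duplicate plates.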

Bexarotene + Luminespib = compound: C=C(c1ccc(C(=O)O)cc1)c1cc2c(cc1C)C(C)(C)CCC2(C)C [Bexarotene] + CCNC(=O)c1noc(-c2cc(C(C)C)c(O)cc2O)c1-c1ccc(CN2CCOCC2)cc1 [Luminespib] (partner 0.01 µM)
How it was run: as §1

Bexarotene + Tozasertib = compound: C=C(c1ccc(C(=O)O)cc1)c1cc2c(cc1C)C(C)(C)CCC2(C)C [Bexarotene] + Cc1cc(Nc2cc(N3CCN(C)CC3)nc(Sc3ccc(NC(=O)C4CC4)cc3)n2)n[nH]1 [Tozasertib] (partner 0.1 µM)
How it was run: as §1

Bexarotene + Dasatinib = compound: C=C(c1ccc(C(=O)O)cc1)c1cc2c(cc1C)C(C)(C)CCC2(C)C [Bexarotene] + Cc1nc(Nc2ncc(C(=O)Nc3c(C)cccc3Cl)s2)cc(N2CCN(CCO)CC2)n1 [Dasatinib] (partner 0.075 µM)
How it was run: as §1

NCI-H727
relative viability (Bexarotene + Alpelisib; first compound 0.08 µM): 0.808 | relative viability (Bexarotene + Alpelisib; first compound 0.253 µM): 0.522 | relative viability (Bexarotene + Alpelisib; first compound 0.8 µM): 0.503 | relative viability (Bexarotene + Alpelisib; first compound 2.53 µM): 0.58 | relative viability (Bexarotene + Alpelisib; first compound 8 µM): 0.701 | relative viability (Bexarotene + Luminespib; first compound 0.08 µM): 0.392 | relative viability (Bexarotene + Luminespib; first compound 0.253 µM): 0.685 | relative viability (Bexarotene + Luminespib; first compound 0.8 µM): 0.325 | relative viability (Bexarotene + Luminespib; first compound 2.53 µM): 0.322 | relative viability (Bexarotene + Luminespib; first compound 8 µM): 0.372 | relative viability (Bexarotene + Tozasertib; first compound 0.08 µM): 0.622 | relative viability (Bexarotene + Tozasertib; first compound 0.253 µM): 0.584 | relative viability (Bexarotene + Tozasertib; first compound 0.8 µM): 0.76 | relative viability (Bexarotene + Tozasertib; first compound 2.53 µM): 0.64 | relative viability (Bexarotene + Tozasertib; first compound 8 µM): 0.618 | relative viability (Bexarotene + Dasatinib; first compound 0.08 µM): 0.405 | relative viability (Bexarotene + Dasatinib; first compound 0.253 µM): 0.311 | relative viability (Bexarotene + Dasatinib; first compound 0.8 µM): 0.388 | relative viability (Bexarotene + Dasatinib; first compound 2.53 µM): 0.316 | relative viability (Bexarotene + Dasatinib; first compound 8 µM): 0.37

NCI-H838
relative viability (Bexarotene + Alpelisib; first compound 0.08 µM): 1.1 | relative viability (Bexarotene + Alpelisib; first compound 0.253 µM): 1.11 | relative viability (Bexarotene + Alpelisib; first compound 0.8 µM): 1.14 | relative viability (Bexarotene + Alpelisib; first compound 2.53 µM): 1.08 | relative viability (Bexarotene + Alpelisib; first compound 8 µM): 1.06 | relative viability (Bexarotene + Luminespib; first compound 0.08 µM): 0.368 | relative viability (Bexarotene + Luminespib; first compound 0.253 µM): 0.377 | relative viability (Bexarotene + Luminespib; first compound 0.8 µM): 0.269 | relative viability (Bexarotene + Luminespib; first compound 2.53 µM): 0.329 | relative viability (Bexarotene + Luminespib; first compound 8 µM): 0.321 | relative viability (Bexarotene + Tozasertib; first compound 0.08 µM): 0.269 | relative viability (Bexarotene + Tozasertib; first compound 0.253 µM): 0.301 | relative viability (Bexarotene + Tozasertib; first compound 0.8 µM): 0.267 | relative viability (Bexarotene + Tozasertib; first compound 2.53 µM): 0.278 | relative viability (Bexarotene + Tozasertib; first compound 8 µM): 0.271 | relative viability (Bexarotene + Dasatinib; first compound 0.08 µM): 0.299 | relative viability (Bexarotene + Dasatinib; first compound 0.253 µM): 0.301 | relative viability (Bexarotene + Dasatinib; first compound 0.8 µM): 0.339 | relative viability (Bexarotene + Dasatinib; first compound 2.53 µM): 0.346 | relative viability (Bexarotene + Dasatinib; first compound 8 µM): 0.381

NCI-H1355
relative viability (Bexarotene + Alpelisib; first compound 0.08 µM): 0.957 | relative viability (Bexarotene + Alpelisib; first compound 0.253 µM): 0.894 | relative viability (Bexarotene + Alpelisib; first compound 0.8 µM): 0.765 | relative viability (Bexarotene + Alpelisib; first compound 2.53 µM): 0.916 | relative viability (Bexarotene + Alpelisib; first compound 8 µM): 0.876 | relative viability (Bexarotene + Luminespib; first compound 0.08 µM): 0.831 | relative viability (Bexarotene + Luminespib; first compound 0.253 µM): 0.714 | relative viability (Bexarotene + Luminespib; first compound 0.8 µM): 0.668 | relative viability (Bexarotene + Luminespib; first compound 2.53 µM): 0.631 | relative viability (Bexarotene + Luminespib; first compound 8 µM): 0.716 | relative viability (Bexarotene + Tozasertib; first compound 0.08 µM): 0.492 | relative viability (Bexarotene + Tozasertib; first compound 0.253 µM): 0.531 | relative viability (Bexarotene + Tozasertib; first compound 0.8 µM): 0.54 | relative viability (Bexarotene + Tozasertib; first compound 2.53 µM): 0.492 | relative viability (Bexarotene + Tozasertib; first compound 8 µM): 0.512 | relative viability (Bexarotene + Dasatinib; first compound 0.08 µM): 0.744 | relative viability (Bexarotene + Dasatinib; first compound 0.253 µM): 0.814 | relative viability (Bexarotene + Dasatinib; first compound 0.8 µM): 0.55 | relative viability (Bexarotene + Dasatinib; first compound 2.53 µM): 0.627 | relative viability (Bexarotene + Dasatinib; first compound 8 µM): 0.707

NCI-H1395
relative viability (Bexarotene + Alpelisib; first compound 0.08 µM): 1.18 | relative viability (Bexarotene + Alpelisib; first compound 0.253 µM): 1.06 | relative viability (Bexarotene + Alpelisib; first compound 0.8 µM): 0.93 | relative viability (Bexarotene + Alpelisib; first compound 2.53 µM): 1.03 | relative viability (Bexarotene + Alpelisib; first compound 8 µM): 1.08 | relative viability (Bexarotene + Luminespib; first compound 0.08 µM): 0.806 | relative viability (Bexarotene + Luminespib; first compound 0.253 µM): 0.631 | relative viability (Bexarotene + Luminespib; first compound 0.8 µM): 0.687 | relative viability (Bexarotene + Luminespib; first compound 2.53 µM): 0.663 | relative viability (Bexarotene + Luminespib; first compound 8 µM): 0.749 | relative viability (Bexarotene + Tozasertib; first compound 0.08 µM): 0.754 | relative viability (Bexarotene + Tozasertib; first compound 0.253 µM): 0.77 | relative viability (Bexarotene + Tozasertib; first compound 0.8 µM): 0.746 | relative viability (Bexarotene + Tozasertib; first compound 2.53 µM): 0.687 | relative viability (Bexarotene + Tozasertib; first compound 8 µM): 0.799 | relative viability (Bexarotene + Dasatinib; first compound 0.08 µM): 0.448 | relative viability (Bexarotene + Dasatinib; first compound 0.253 µM): 0.385 | relative viability (Bexarotene + Dasatinib; first compound 0.8 µM): 0.367 | relative viability (Bexarotene + Dasatinib; first compound 2.53 µM): 0.407 | relative viability (Bexarotene + Dasatinib; first compound 8 µM): 0.419

NCI-H1437
relative viability (Bexarotene + Alpelisib; first compound 0.08 µM): 1.02 | relative viability (Bexarotene + Alpelisib; first compound 0.253 µM): 1.06 | relative viability (Bexarotene + Alpelisib; first compound 0.8 µM): 0.946 | relative viability (Bexarotene + Alpelisib; first compound 2.53 µM): 1.11 | relative viability (Bexarotene + Alpelisib; first compound 8 µM): 0.829 | relative viability (Bexarotene + Luminespib; first compound 0.08 µM): 1.05 | relative viability (Bexarotene + Luminespib; first compound 0.253 µM): 1.07 | relative viability (Bexarotene + Luminespib; first compound 0.8 µM): 1.15 | relative viability (Bexarotene + Luminespib; first compound 2.53 µM): 1.07 | relative viability (Bexarotene + Luminespib; first compound 8 µM): 1.1 | relative viability (Bexarotene + Tozasertib; first compound 0.08 µM): 0.382 | relative viability (Bexarotene + Tozasertib; first compound 0.253 µM): 0.395 | relative viability (Bexarotene + Tozasertib; first compound 0.8 µM): 0.396 | relative viability (Bexarotene + Tozasertib; first compound 2.53 µM): 0.421 | relative viability (Bexarotene + Tozasertib; first compound 8 µM): 0.382 | relative viability (Bexarotene + Dasatinib; first compound 0.08 µM): 0.445 | relative viability (Bexarotene + Dasatinib; first compound 0.253 µM): 0.6 | relative viability (Bexarotene + Dasatinib; first compound 0.8 µM): 0.567 | relative viability (Bexarotene + Dasatinib; first compound 2.53 µM): 0.411 | relative viability (Bexarotene + Dasatinib; first compound 8 µM): 0.434

NCI-H1651
relative viability (Bexarotene + Alpelisib; first compound 0.08 µM): 1 | relative viability (Bexarotene + Alpelisib; first compound 0.253 µM): 1 | relative viability (Bexarotene + Alpelisib; first compound 0.8 µM): 1.09 | relative viability (Bexarotene + Alpelisib; first compound 2.53 µM): 0.997 | relative viability (Bexarotene + Alpelisib; first compound 8 µM): 0.921 | relative viability (Bexarotene + Luminespib; first compound 0.08 µM): 1.06 | relative viability (Bexarotene + Luminespib; first compound 0.253 µM): 0.881 | relative viability (Bexarotene + Luminespib; first compound 0.8 µM): 0.938 | relative viability (Bexarotene + Luminespib; first compound 2.53 µM): 0.845 | relative viability (Bexarotene + Luminespib; first compound 8 µM): 0.911 | relative viability (Bexarotene + Tozasertib; first compound 0.08 µM): 0.929 | relative viability (Bexarotene + Tozasertib; first compound 0.253 µM): 0.64 | relative viability (Bexarotene + Tozasertib; first compound 0.8 µM): 0.741 | relative viability (Bexarotene + Tozasertib; first compound 2.53 µM): 0.594 | relative viability (Bexarotene + Tozasertib; first compound 8 µM): 0.791 | relative viability (Bexarotene + Dasatinib; first compound 0.08 µM): 0.518 | relative viability (Bexarotene + Dasatinib; first compound 0.253 µM): 0.551 | relative viability (Bexarotene + Dasatinib; first compound 0.8 µM): 0.363 | relative viability (Bexarotene + Dasatinib; first compound 2.53 µM): 0.458 | relative viability (Bexarotene + Dasatinib; first compound 8 µM): 0.374

NCI-H1666
relative viability (Bexarotene + Alpelisib; first compound 0.08 µM): 1 | relative viability (Bexarotene + Alpelisib; first compound 0.253 µM): 0.877 | relative viability (Bexarotene + Alpelisib; first compound 0.8 µM): 0.862 | relative viability (Bexarotene + Alpelisib; first compound 2.53 µM): 0.897 | relative viability (Bexarotene + Alpelisib; first compound 8 µM): 0.761 | relative viability (Bexarotene + Luminespib; first compound 0.08 µM): 0.922 | relative viability (Bexarotene + Luminespib; first compound 0.253 µM): 0.978 | relative viability (Bexarotene + Luminespib; first compound 0.8 µM): 0.916 | relative viability (Bexarotene + Luminespib; first compound 2.53 µM): 0.907 | relative viability (Bexarotene + Luminespib; first compound 8 µM): 0.816 | relative viability (Bexarotene + Tozasertib; first compound 0.08 µM): 0.658 | relative viability (Bexarotene + Tozasertib; first compound 0.253 µM): 0.611 | relative viability (Bexarotene + Tozasertib; first compound 0.8 µM): 0.52 | relative viability (Bexarotene + Tozasertib; first compound 2.53 µM): 0.558 | relative viability (Bexarotene + Tozasertib; first compound 8 µM): 0.668 | relative viability (Bexarotene + Dasatinib; first compound 0.08 µM): 0.793 | relative viability (Bexarotene + Dasatinib; first compound 0.253 µM): 0.826 | relative viability (Bexarotene + Dasatinib; first compound 0.8 µM): 0.783 | relative viability (Bexarotene + Dasatinib; first compound 2.53 µM): 0.788 | relative viability (Bexarotene + Dasatinib; first compound 8 µM): 0.77

NCI-H1734
relative viability (Bexarotene + Alpelisib; first compound 0.08 µM): 0.718 | relative viability (Bexarotene + Alpelisib; first compound 0.253 µM): 0.708 | relative viability (Bexarotene + Alpelisib; first compound 0.8 µM): 0.652 | relative viability (Bexarotene + Alpelisib; first compound 2.53 µM): 0.637 | relative viability (Bexarotene + Alpelisib; first compound 8 µM): 0.633 | relative viability (Bexarotene + Luminespib; first compound 0.08 µM): 0.2 | relative viability (Bexarotene + Luminespib; first compound 0.253 µM): 0.182 | relative viability (Bexarotene + Luminespib; first compound 0.8 µM): 0.177 | relative viability (Bexarotene + Luminespib; first compound 2.53 µM): 0.172 | relative viability (Bexarotene + Luminespib; first compound 8 µM): 0.195 | relative viability (Bexarotene + Tozasertib; first compound 0.08 µM): 0.281 | relative viability (Bexarotene + Tozasertib; first compound 0.253 µM): 0.244 | relative viability (Bexarotene + Tozasertib; first compound 0.8 µM): 0.26 | relative viability (Bexarotene + Tozasertib; first compound 2.53 µM): 0.285 | relative viability (Bexarotene + Tozasertib; first compound 8 µM): 0.257 | relative viability (Bexarotene + Dasatinib; first compound 0.08 µM): 0.478 | relative viability (Bexarotene + Dasatinib; first compound 0.253 µM): 0.484 | relative viability (Bexarotene + Dasatinib; first compound 0.8 µM): 0.412 | relative viability (Bexarotene + Dasatinib; first compound 2.53 µM): 0.411 | relative viability (Bexarotene + Dasatinib; first compound 8 µM): 0.46
